Measurements taken from PubChem BioAssay (NCI).
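Cultured in 96-well plates, cells were exposed to test compound for 48 hours across five concentrations. TGI denotes the concentration required for complete inhibition of growth.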

Assays:
Assay in all cases: NCI anticancer screen, dose series, 48 h
786-0 renal = test system: 786-0 renal
A498 renal = test system: A498 renal
A549 NSCLC = test system: A549 NSCLC
ACHN renal = test system: ACHN renal
BT-549 breast = test system: BT-549 breast
CAKI-1 renal = test system: CAKI-1 renal
CCRF-CEM leukemia = test system: CCRF-CEM leukemia
COLO 205 colon = test system: COLO 205 colon
DU-145 prostate = test system: DU-145 prostate
EKVX NSCLC = test system: EKVX NSCLC
HCC-2998 colon = test system: HCC-2998 colon
HCT-116 colon = test system: HCT-116 colon
HCT-15 colon = test system: HCT-15 colon
HL-60(TB) leukemia = test system: HL-60(TB) leukemia
HOP-62 NSCLC = test system: HOP-62 NSCLC
HOP-92 NSCLC = test system: HOP-92 NSCLC
HS 578T breast = test system: HS 578T breast
HT29 colon = test system: HT29 colon
IGROV1 ovarian = test system: IGROV1 ovarian
K-562 leukemia = test system: K-562 leukemia
KM12 colon = test system: KM12 colon
LOX IMVI melanoma = test system: LOX IMVI melanoma
M14 melanoma = test system: M14 melanoma
MCF7 breast = test system: MCF7 breast
MDA-MB-231 breast = test system: MDA-MB-231 breast
MDA-MB-435 = test system: MDA-MB-435
MDA-N = test system: MDA-N
MOLT-4 leukemia = test system: MOLT-4 leukemia
NCI-H226 lung = test system: NCI-H226 lung
NCI-H23 lung = test system: NCI-H23 lung
NCI-H522 lung = test system: NCI-H522 lung
NCI/ADR-RES ovarian = test system: NCI/ADR-RES ovarian
OVCAR-3 ovarian = test system: OVCAR-3 ovarian
OVCAR-4 ovarian = test system: OVCAR-4 ovarian
OVCAR-5 ovarian = test system: OVCAR-5 ovarian
OVCAR-8 ovarian = test system: OVCAR-8 ovarian
PC-3 prostate = test system: PC-3 prostate
RPMI-8226 leukemia = test system: RPMI-8226 leukemia
SF-268 CNS = test system: SF-268 CNS
SF-295 CNS = test system: SF-295 CNS
SF-539 CNS = test system: SF-539 CNS
SK-MEL-2 melanoma = test system: SK-MEL-2 melanoma
SK-MEL-28 melanoma = test system: SK-MEL-28 melanoma
SK-MEL-5 melanoma = test system: SK-MEL-5 melanoma
SK-OV-3 ovarian = test system: SK-OV-3 ovarian
SN12C renal = test system: SN12C renal
SNB-19 CNS = test system: SNB-19 CNS
SNB-75 CNS = test system: SNB-75 CNS
SR leukemia = test system: SR leukemia
SW-620 colon = test system: SW-620 colon
T-47D breast = test system: T-47D breast
TK-10 renal = test system: TK-10 renal
U251 CNS = test system: U251 CNS
UACC-257 melanoma = test system: UACC-257 melanoma
UACC-62 melanoma = test system: UACC-62 melanoma
UO-31 renal = test system: UO-31 renal
MALME-3M melanoma = test system: MALME-3M melanoma
NCI-H460 lung = test system: NCI-H460 lung
RXF 393 renal = test system: RXF 393 renal

Structure (SMILES): C/C=C(/C)C(=O)O[C@H]1CCN2CC=C(COC(=O)[C@@](O)([C@H](C)OC)C(C)(C)O)[C@H]12
- TGI (786-0 renal): > 100 µM
- TGI (A498 renal): > 100 µM
- TGI (A549 NSCLC): > 100 µM
- TGI (ACHN renal): > 100 µM
- TGI (BT-549 breast): > 100 µM
- TGI (CAKI-1 renal): > 100 µM
- TGI (CCRF-CEM leukemia): > 100 µM
- TGI (COLO 205 colon): > 100 µM
- TGI (DU-145 prostate): > 100 µM
- TGI (EKVX NSCLC): > 100 µM
- TGI (HCC-2998 colon): > 100 µM
- TGI (HCT-116 colon): > 100 µM
- TGI (HCT-15 colon): > 100 µM
- TGI (HL-60(TB) leukemia): > 100 µM
- TGI (HOP-62 NSCLC): > 100 µM
- TGI (HOP-92 NSCLC): > 100 µM
- TGI (HS 578T breast): > 100 µM
- TGI (HT29 colon): > 100 µM
- TGI (IGROV1 ovarian): > 100 µM
- TGI (K-562 leukemia): > 100 µM
- TGI (KM12 colon): > 100 µM
- TGI (LOX IMVI melanoma): > 100 µM
- TGI (M14 melanoma): > 100 µM
- TGI (MCF7 breast): > 100 µM
- TGI (MDA-MB-231 breast): > 100 µM
- TGI (MDA-MB-435): > 100 µM
- TGI (MDA-N): > 100 µM
- TGI (MOLT-4 leukemia): > 100 µM
- TGI (NCI-H226 lung): > 100 µM
- TGI (NCI-H23 lung): > 100 µM
- TGI (NCI-H522 lung): > 100 µM
- TGI (NCI/ADR-RES ovarian): > 100 µM
- TGI (OVCAR-3 ovarian): > 100 µM
- TGI (OVCAR-4 ovarian): > 100 µM
- TGI (OVCAR-5 ovarian): > 100 µM
- TGI (OVCAR-8 ovarian): > 100 µM
- TGI (PC-3 prostate): > 100 µM
- TGI (RPMI-8226 leukemia): > 100 µM
- TGI (SF-268 CNS): > 100 µM
- TGI (SF-295 CNS): > 100 µM
- TGI (SF-539 CNS): > 100 µM
- TGI (SK-MEL-2 melanoma): > 100 µM
- TGI (SK-MEL-28 melanoma): > 100 µM
- TGI (SK-MEL-5 melanoma): > 100 µM
- TGI (SK-OV-3 ovarian): > 100 µM
- TGI (SN12C renal): > 100 µM
- TGI (SNB-19 CNS): > 100 µM
- TGI (SNB-75 CNS): > 100 µM
- TGI (SR leukemia): > 100 µM
- TGI (SW-620 colon): > 100 µM
- TGI (T-47D breast): > 100 µM
- TGI (TK-10 renal): > 100 µM
- TGI (U251 CNS): > 100 µM
- TGI (UACC-257 melanoma): > 100 µM
- TGI (UACC-62 melanoma): > 100 µM
- TGI (UO-31 renal): > 100 µM

Structure (SMILES): O=c1n(-c2ccc(Cl)c(Cl)c2)c(=O)n(-c2ccc(Cl)c(Cl)c2)c(=O)n1-c1ccc(Cl)c(Cl)c1
- TGI (786-0 renal): 7.84 µM
- TGI (A498 renal): 7.52 µM
- TGI (A549 NSCLC): 6.37 µM
- TGI (ACHN renal): 6.43 µM
- TGI (BT-549 breast): 8.49 µM
- TGI (CAKI-1 renal): 7.07 µM
- TGI (CCRF-CEM leukemia): 4.5 µM
- TGI (COLO 205 colon): 1.95 µM
- TGI (DU-145 prostate): 12 µM
- TGI (HCC-2998 colon): > 46.7 µM
- TGI (HCT-116 colon): 5.5 µM
- TGI (HCT-15 colon): 6.98 µM
- TGI (HL-60(TB) leukemia): > 24.2 µM
- TGI (HOP-62 NSCLC): 12.4 µM
- TGI (HOP-92 NSCLC): 2.37 µM
- TGI (HS 578T breast): 10 µM
- TGI (HT29 colon): 10.9 µM
- TGI (IGROV1 ovarian): 15 µM
- TGI (K-562 leukemia): 9.05 µM
- TGI (KM12 colon): 7.14 µM
- TGI (LOX IMVI melanoma): 7.16 µM
- TGI (M14 melanoma): 13.1 µM
- TGI (MALME-3M melanoma): > 27.8 µM
- TGI (MCF7 breast): 5.03 µM
- TGI (MDA-MB-231 breast): 4.32 µM
- TGI (MDA-MB-435): 16.5 µM
- TGI (MDA-N): 8.02 µM
- TGI (MOLT-4 leukemia): 4.6 µM
- TGI (NCI-H226 lung): 9.61 µM
- TGI (NCI-H23 lung): 4.91 µM
- TGI (NCI-H460 lung): 10.7 µM
- TGI (NCI-H522 lung): 11.5 µM
- TGI (NCI/ADR-RES ovarian): 11.2 µM
- TGI (OVCAR-3 ovarian): 13.5 µM
- TGI (OVCAR-4 ovarian): 12.1 µM
- TGI (OVCAR-5 ovarian): 8.91 µM
- TGI (OVCAR-8 ovarian): 8.7 µM
- TGI (PC-3 prostate): 4.72 µM
- TGI (RXF 393 renal): 7.85 µM
- TGI (SF-268 CNS): 6.69 µM
- TGI (SF-295 CNS): 6.62 µM
- TGI (SF-539 CNS): 2.77 µM
- TGI (SK-MEL-2 melanoma): 4.53 µM
- TGI (SK-MEL-28 melanoma): 15.1 µM
- TGI (SK-MEL-5 melanoma): 3.44 µM
- TGI (SK-OV-3 ovarian): 3.16 µM
- TGI (SN12C renal): > 31.6 µM
- TGI (SNB-19 CNS): 14.2 µM
- TGI (SNB-75 CNS): 7.75 µM
- TGI (SR leukemia): 8.09 µM
- TGI (SW-620 colon): 10.2 µM
- TGI (T-47D breast): 12.6 µM
- TGI (TK-10 renal): 17.3 µM
- TGI (U251 CNS): 10.6 µM
- TGI (UACC-257 melanoma): 5.73 µM
- TGI (UACC-62 melanoma): 11.2 µM
- TGI (UO-31 renal): 9.73 µM
